Laboratory results published in patent publication US11324720B2, “Antiproliferative DNA polymerase inhibitor” (NEW YORK MEDICAL COLLEGE, priority 2018, dated 2022).

Key:
Pol δ = target: T1, Pol δ (Homo sapiens, UniProt P28340); assay: primer extension assay (25 mer primer/40 mer template); format: biochemical; details: 20 μM inhibitor
T1 construct: made in house; host or cells: insect cells (Pol δ); E. coli (PCNA)
Source text: Next, we investigated the inhibitory properties of zelpolib in a primer extension assay^17,18 with a template that consists of all four deoxynucleotide that is more reflective of cellular DNA replication processes than the pold(A) template. The substrate consisted of a 25 mer primer hybridized to a 40 mer template. In the presence of PCNA and dNTPs, the primers were extended upon addition of Pol δ and a full extension would generate a 40 mer copy of the template. The primers were labeled at the 5′-end with ^32P, and the products were separated on a sequencing gel for visualization and quantification. […] The idea originated from the fact that most kinase inhibitors compete for binding with ATP. It is conceivable that they might compete with dATP for binding to polymerases. We randomly selected 10 small-molecule-cancer drugs with nine being kinase inhibitors^19 and one parp inhibitor (olaparib)^20. […] In the presence of any other inhibitors, at least 30% of the primers were extended.
Recombinant Pol […] were expressed in insect cells and purified as reported previously^18. […]
Briefly, the standard reaction mixture contained 5 μM dNTP, 5 mM MgCl2, 50 mM Tris-HCl (pH 7.5), 2 mM dithiothreitol, […] BSA, 50 mM NaCl, 20 nM primer/template, 50 nM PCNA, 10 nM Pol δ and variable concentrations of inhibitors. […] Products was visualized on phosphorimager and quantitated using Image-J software. […]

BxPC-3 cells [1] = assay: DNA fiber fluorography dual labeling (IdU/CldU); format: cell-based, human
Source text: (§1) In our search for Pol δ inhibitors, we focused on the identification of inhibitors that can inhibit Pol δ when it is actively replicating DNA. DNA fiber fluorography with dual labeling technique^24 provides a possibility that we can analyze the effect of zelpolib on ongoing DNA replication at a single molecule level. Both IdU and CldU are halogenated thymidine analogs that can be incorporated into DNA. Subsequent DNA fiber spreading and antibody detection are used to directly visualize the replicated DNA fiber. The incorporation of IdU gives rise to red fibers and CldU produces green fibers with subsequent antibody detection^24. Therefore, in this assay, the cells were first incubated with IdU for 20 minutes in the absence of zelpolib (FIG. 3B) to establish ongoing DNA replication and the basal replication rates of each individual DNA fibers. Subsequently, CldU were added to cell culture either with or without simultaneous addition of zelpolib. DNA replication were allowed for an additional hour. […] In order to be certain that this inhibition was not cell line dependent, we conducted an identical experiment on a triple-negative breast cancer cell line as well. […] The DNA fibers (FIG. 3C) from a single field of view (FIG. 9) were realigned for visual comparison.
(§2) To analyze the effect of zelpolib, DNA fiber fluorography was used with dual labeling technique as reported. Cells were seeded in 6-well plates (Cellstar) and allowed to attach for 24 hours before pulse labeled with 25 μM IdU for 20 min. Subsequently, cells were washed three times with PBS and pulse labeled with 250 μM of CldU (Sigma) for 60 min in the presence or absence of zelpolib. Cell lysis and fiber spreading were conducted according to Schwab & Niedzwiedz. IdU and CldU were detected by primary mouse anti-BrdU antibody (BD biosciences, 1:25) and rat anti-BrdU antibody (Abcam, 1:200) and secondary fluorescent antibodies Alexa anti-mouse 594 (ThermoFisher scientific, 1:625) and Alexa anti-rat 488 (ThermoFisher scientific, 1:200). DNA fibers were imaged on fluorescence microscope and fiber lengths were measured using Image-J software. Statistics were calculated using GraphPad prism software.

HCC1395 cells [2] = assay: DNA fiber fluorography dual labeling (IdU/CldU); format: cell-based, human; details: all three concentrations, zelpolib added with CldU for 60 min
Source text: as §1, §2

BxPC-3 cells [3] = assay: EdU incorporation by laser scanning cytometry; format: cell-based, human; details: 10 and 20 μM; 1 to 2 hours pre-incubation, then EdU pulse
HCC1395 cells [4] = assay: MTT assay with PARP inhibitors with or without zelpolib; format: cell-based, human; details: 2.5 μM zelpolib, 48 hrs
Procedure: However, there have been minimal clinical benefits for HR-proficient cancers^37-41. Since zelpolib can inhibit HR, we explored the effect of zelpolib in combination with PARP inhibitors on HR-proficient cancer cells. The hypothesis is that zelpolib will lead to an HR-defect through inhibition of Pol δ and render HR-proficient cells sensitive to PARP inhibition. […] The cells were treated with increasing concentrations of PARP inhibitor Niraparib (FIG. 5B) or Rucaparib (FIG. 5C) in the absence or presence of 2.5 μM zelpolib for 48 hrs. The number of cells were then analyzed by MTT assay.
Human cancer cells (5×10^3-7.5×10^3) were initially seeded in 96-well plates (Cellstar) containing 0.2 ml media per well. After 24 hrs, these cells were treated with variable concentrations drug combinations for 48-72 hrs. Subsequently, 4,5-dimethylthiazol-2-yl-2,5-diphenyltetrazolium bromide (MTT) (20 μl of 5 mg/ml) was added to each well for 3 hrs. Formazan crystals were then dissolved in 150 μl DMSO and optical density was read at 490 nm^25. All experiments were performed in triplicates. Results were analyzed by GraphPad Prism. Data represent mean value±SEM for each concentration of inhibitor combinations.

T1 sequence (P28340 whole entry): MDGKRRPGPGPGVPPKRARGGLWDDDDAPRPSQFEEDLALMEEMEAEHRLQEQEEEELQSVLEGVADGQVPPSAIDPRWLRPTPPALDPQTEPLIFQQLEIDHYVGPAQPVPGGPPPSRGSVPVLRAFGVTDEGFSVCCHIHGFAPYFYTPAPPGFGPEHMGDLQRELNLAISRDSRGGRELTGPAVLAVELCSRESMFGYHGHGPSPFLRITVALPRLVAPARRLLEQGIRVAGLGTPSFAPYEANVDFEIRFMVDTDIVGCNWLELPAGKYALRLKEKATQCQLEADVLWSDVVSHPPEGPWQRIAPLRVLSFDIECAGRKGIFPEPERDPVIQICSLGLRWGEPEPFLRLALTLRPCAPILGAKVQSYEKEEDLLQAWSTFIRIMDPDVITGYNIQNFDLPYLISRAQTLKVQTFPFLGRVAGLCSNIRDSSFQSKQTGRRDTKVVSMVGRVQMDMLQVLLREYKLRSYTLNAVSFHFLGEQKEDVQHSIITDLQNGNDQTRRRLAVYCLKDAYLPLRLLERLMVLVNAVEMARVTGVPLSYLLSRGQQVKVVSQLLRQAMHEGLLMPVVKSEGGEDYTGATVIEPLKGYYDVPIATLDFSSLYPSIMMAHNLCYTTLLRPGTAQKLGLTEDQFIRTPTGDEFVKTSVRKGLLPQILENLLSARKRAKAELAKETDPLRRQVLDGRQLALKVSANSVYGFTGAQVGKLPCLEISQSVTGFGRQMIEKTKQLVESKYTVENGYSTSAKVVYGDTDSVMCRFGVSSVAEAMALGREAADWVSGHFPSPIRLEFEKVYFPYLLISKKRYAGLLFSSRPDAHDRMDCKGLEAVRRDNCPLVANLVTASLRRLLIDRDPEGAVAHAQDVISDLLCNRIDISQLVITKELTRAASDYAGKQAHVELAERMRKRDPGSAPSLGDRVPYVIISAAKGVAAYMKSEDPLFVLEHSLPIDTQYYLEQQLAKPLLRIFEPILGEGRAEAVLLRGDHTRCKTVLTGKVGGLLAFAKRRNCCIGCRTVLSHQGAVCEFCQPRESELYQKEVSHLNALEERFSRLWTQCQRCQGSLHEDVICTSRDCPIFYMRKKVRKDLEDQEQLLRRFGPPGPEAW
T1 sequence (P49005 whole entry partner): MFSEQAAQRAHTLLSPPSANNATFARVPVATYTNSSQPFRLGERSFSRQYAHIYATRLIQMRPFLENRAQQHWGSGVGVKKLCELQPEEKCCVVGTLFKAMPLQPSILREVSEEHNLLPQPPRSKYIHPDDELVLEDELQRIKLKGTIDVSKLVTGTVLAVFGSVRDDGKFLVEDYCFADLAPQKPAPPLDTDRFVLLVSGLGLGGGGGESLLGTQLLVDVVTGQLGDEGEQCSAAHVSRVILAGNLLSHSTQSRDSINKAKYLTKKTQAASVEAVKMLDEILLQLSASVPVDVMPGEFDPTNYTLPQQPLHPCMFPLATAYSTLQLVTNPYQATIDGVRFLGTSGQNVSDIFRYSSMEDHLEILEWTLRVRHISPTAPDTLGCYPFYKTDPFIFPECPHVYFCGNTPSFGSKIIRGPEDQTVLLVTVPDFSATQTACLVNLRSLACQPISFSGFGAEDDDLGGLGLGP
T1 sequence (Q15054 whole entry partner): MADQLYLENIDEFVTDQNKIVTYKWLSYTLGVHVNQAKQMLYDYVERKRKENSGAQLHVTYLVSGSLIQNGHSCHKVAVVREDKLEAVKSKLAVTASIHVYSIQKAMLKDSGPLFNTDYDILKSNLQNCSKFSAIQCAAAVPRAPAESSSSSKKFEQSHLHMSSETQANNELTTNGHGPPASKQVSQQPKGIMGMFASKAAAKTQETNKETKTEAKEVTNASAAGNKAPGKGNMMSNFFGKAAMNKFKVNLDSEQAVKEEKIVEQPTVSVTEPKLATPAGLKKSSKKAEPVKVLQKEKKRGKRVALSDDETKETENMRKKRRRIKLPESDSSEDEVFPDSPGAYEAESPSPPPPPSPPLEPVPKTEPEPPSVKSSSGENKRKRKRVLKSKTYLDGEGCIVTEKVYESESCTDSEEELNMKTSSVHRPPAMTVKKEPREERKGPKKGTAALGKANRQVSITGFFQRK
T1 sequence (P12004 whole entry partner): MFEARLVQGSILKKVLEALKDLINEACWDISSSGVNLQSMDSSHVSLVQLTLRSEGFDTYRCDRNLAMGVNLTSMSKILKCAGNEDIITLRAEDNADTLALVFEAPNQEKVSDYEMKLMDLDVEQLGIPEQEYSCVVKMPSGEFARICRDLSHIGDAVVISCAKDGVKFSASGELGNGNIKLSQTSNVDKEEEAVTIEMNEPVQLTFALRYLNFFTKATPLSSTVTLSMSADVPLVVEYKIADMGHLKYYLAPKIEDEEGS

COC(=O)c1cc(-c2ccccc2)sc1NC(=S)NNC(=O)CCc1ccc(O)c(O)c1 [zelpolib]
full-length product (40 mer) formed (Pol δ): barely detectible
primer unextended (Pol δ): 94%
inhibition of DNA fiber extension (BxPC-3 cells [1]; 20 μM, 60 minutes exposure, cell line not stated): about 40%
inhibition of ongoing cellular DNA replication (green/red fiber length ratio) (BxPC-3 cells [1]; BxPC-3, zelpolib added with CldU for 60 min): concentration dependent inhibition of ongoing cellular DNA replication
cellular uptake time (BxPC-3 cells [1]; inferred from fiber inhibition at 20 μM with 60 minutes total exposure): less than 30 minutes
inhibition of ongoing DNA replication (green/red fiber length ratio) (HCC1395 cells [2]): significant inhibition of ongoing DNA replication
EdU incorporation versus sham treatment (BxPC-3 cells [3]): significant reduction of EdU incorporation
sensitisation of HCC1395 cells to Rucaparib (HCC1395 cells [4]; difference statistically significant up to 25 μM): behaved similarly to zelpolib and Niraparib combination
sensitisation of HCC1395 cells to Niraparib (HCC1395 cells [4]; differences significant up to 20 μM): increased the sensitivity of HCC1395 cells to Niraparib across the whole range of concentrations
